In paper PMC6223132 (Journal of controlled release : official journal of the …, 2018):
Converted amounts (≈) assume the structure as drawn.

How the values were obtained:
[1] = In vivo pharmacokinetics and biodistribution of drugamer-released ciprofloxacin; settings: single dose 20 mg/kg intratracheal, over 2 h
[2] = system: aerosolized F. novicida U112; assay type: in vivo, C57Bl/6 mice; settings: n=8
Francisella tularensis = settings: cited from earlier work

In the case of O=C(O)c1cn(C2CC2)c2cc(N3CCNCC3)c(F)cc2c1=O [free ciprofloxacin, ciprofloxacin], the “elimination from the lungs” value [1] is listed as “rapid elimination”, the survival rate [2] is listed as 0% and the MIC (Francisella tularensis) is listed as 0.03 µg/mL (≈ 0.0905 µM).
